PubChem BioAssay (NCI)
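Results reflect a 48-hour exposure of cells in 96-well plates to compound at five concentrations. At the TGI there is no net growth.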

How the values were obtained:
Test in all cases: NCI tumour cell line growth inhibition, 48 h
786-0 renal = test system: 786-0 renal
A498 renal = test system: A498 renal
A549 NSCLC = test system: A549 NSCLC
ACHN renal = test system: ACHN renal
CAKI-1 renal = test system: CAKI-1 renal
CCRF-CEM leukemia = test system: CCRF-CEM leukemia
DLD-1 colon = test system: DLD-1 colon
DMS 114 small cell lung = test system: DMS 114 small cell lung
DMS 273 small cell lung = test system: DMS 273 small cell lung
EKVX NSCLC = test system: EKVX NSCLC
HCC-2998 colon = test system: HCC-2998 colon
HCT-116 colon = test system: HCT-116 colon
HCT-15 colon = test system: HCT-15 colon
HL-60(TB) leukemia = test system: HL-60(TB) leukemia
HOP-18 NSCLC = test system: HOP-18 NSCLC
HOP-62 NSCLC = test system: HOP-62 NSCLC
HT29 colon = test system: HT29 colon
IGROV1 ovarian = test system: IGROV1 ovarian
K-562 leukemia = test system: K-562 leukemia
KM12 colon = test system: KM12 colon
KM20L2 colon = test system: KM20L2 colon
LOX IMVI melanoma = test system: LOX IMVI melanoma
LXFL 529 NSCLC = test system: LXFL 529 NSCLC
M14 melanoma = test system: M14 melanoma
M19-MEL melanoma = test system: M19-MEL melanoma
MALME-3M melanoma = test system: MALME-3M melanoma
MOLT-4 leukemia = test system: MOLT-4 leukemia
NCI-H226 lung = test system: NCI-H226 lung
NCI-H23 lung = test system: NCI-H23 lung
NCI-H460 lung = test system: NCI-H460 lung
OVCAR-3 ovarian = test system: OVCAR-3 ovarian
OVCAR-4 ovarian = test system: OVCAR-4 ovarian
OVCAR-5 ovarian = test system: OVCAR-5 ovarian
OVCAR-8 ovarian = test system: OVCAR-8 ovarian
RPMI-8226 leukemia = test system: RPMI-8226 leukemia
RXF 393 renal = test system: RXF 393 renal
RXF-631 renal = test system: RXF-631 renal
SF-268 CNS = test system: SF-268 CNS
SF-295 CNS = test system: SF-295 CNS
SF-539 CNS = test system: SF-539 CNS
SK-MEL-2 melanoma = test system: SK-MEL-2 melanoma
SK-MEL-28 melanoma = test system: SK-MEL-28 melanoma
SK-MEL-5 melanoma = test system: SK-MEL-5 melanoma
SN12C renal = test system: SN12C renal
SNB-19 CNS = test system: SNB-19 CNS
SNB-75 CNS = test system: SNB-75 CNS
SNB-78 CNS = test system: SNB-78 CNS
SR leukemia = test system: SR leukemia
SW-620 colon = test system: SW-620 colon
TK-10 renal = test system: TK-10 renal
UACC-257 melanoma = test system: UACC-257 melanoma
UACC-62 melanoma = test system: UACC-62 melanoma
UO-31 renal = test system: UO-31 renal
XF 498 CNS = test system: XF 498 CNS

Measured: TGI

CCOC(=O)NC(=O)c1cn(C2OC(COC(=O)CCCCCCCCC(=O)OCC3OC(n4cc(C(=O)NC(=O)OCC)c(=O)[nH]c4=O)C(O)C3O)C(O)C2O)c(=O)[nH]c1=O (centres undefined)
> 100 µM: all assays above
